Results on 104 compounds are retold here after PubChem BioAssay AID1996.

Converted amounts (≈) assume the structure as drawn.

The conditions of this data set: buffer; pH 7.4; 200.0 µM.
`COc1ccc(CNC(=O)CCSCc2ccc(C)cc2)cc1` yielded a solubility (kinetic) of 16.5 µg/mL (≈ 50.1 µM). The compound `CN(C)c1ccc(/C=N/NC(=O)CNC(=O)c2ccncc2)cc1` came in with a kinetic solubility of over 48.8 µg/mL. The value for `CS(=O)(=O)Nc1cccc(-c2cn3c(n2)SCC3)c1` was 40 µg/mL (≈ 135 µM); that for `CCc1nc(N2CCN(C(C)=O)CC2)c2c3c(sc2n1)CCCC3` was over 51.7 µg/mL. The figure for `COc1ccc(Nc2nccc(-c3ccc([N+](=O)[O-])cc3)n2)cc1` is 0.4 µg/mL (≈ 1.24 µM); for `Cc1nccn1Cc1ccccc1` it is 24.7 µg/mL (≈ 143 µM); for `O=C(CCNC(=O)c1ccc([N+](=O)[O-])cc1)NCCc1ccccc1` it is 13.8 µg/mL (≈ 40.4 µM). The value for `NC(=O)c1ccc2nc(-c3ccccc3)c(-c3ccccc3)nc2c1` was 0.6 µg/mL (≈ 1.84 µM). `COc1ccc(CN2C(=O)c3cccc4cccc2c34)cc1F` gave a kinetic solubility of 9.8 µg/mL (≈ 31.9 µM).

For `Cc1c(C(=O)c2ccccc2)c(=O)n(C)c(=O)n1C`, the kinetic solubility was over 38.7 µg/mL. In the case of `N#Cc1sc(NCc2cccc(Cl)c2)nc1Cl`, the kinetic solubility worked out at 2.4 µg/mL (≈ 8.45 µM).

The compound `O=C(COC(=O)Cc1c(Cl)cccc1Cl)NC1CCCC1` registered a solubility (kinetic) of over 49.5 µg/mL.

For the compound `CC1CCN(S(=O)(=O)c2ccc3c(c2)oc(=O)n3C)CC1`, the kinetic solubility turned out to be 3 µg/mL (≈ 9.67 µM). As for `CN(Cc1cccnc1)C(=O)CCCc1c[nH]c2ccccc12`, the solubility (kinetic) is 44.5 µg/mL (≈ 145 µM). The value for `O=C(O)C(=O)O.c1ccc(COc2cccc(CN3CCCCC3)c2)cc1` was 46.2 µg/mL; that for `COc1cccc(Nc2c(Nc3cccc(OC)c3)c(=O)c2=O)c1` was under 0.3 µg/mL; that for `CCc1ccc(NC(=O)Nc2ccc3c(c2)CCC3)cc1` was under 0.3 µg/mL.

As for `Nc1cccc2c(=O)c3ccccc3[nH]c12`, the kinetic solubility worked out at 5.6 µg/mL (≈ 26.6 µM). The value for `Cc1cccc(C(=O)N[C@H](C(=O)NCc2cccs2)C(C)C)c1` was 7.5 µg/mL (≈ 22.7 µM); that for `Cc1ccccc1OCC(=O)Nc1ccc2oc(=O)ccc2c1` was 1.1 µg/mL (≈ 3.56 µM); that for `O=C(Nc1ccc(Nc2ccccc2)cc1)c1ccccc1` was 1.6 µg/mL (≈ 5.55 µM). The value for `CC1(C)C(=O)N(c2ccccc2)C(=O)c2ccccc21` was 25.8 µg/mL (≈ 97.2 µM); that for `O=C(CN1CCOCC1)Nc1ccc(NC(=O)c2ccccc2F)cc1` was over 53.6 µg/mL; that for `CCc1ccc(C(=O)OCC(=O)NCC(F)(F)F)cc1` was 17.9 µg/mL (≈ 61.9 µM). The value for `Cc1ccc2c(c1)/C(=C/c1ccccc1C)C(=O)N2` was 2.8 µg/mL (≈ 11.2 µM). `CCC1CCCCN1CC(C)(C)NS(=O)(=O)c1ccccc1` (centres undefined) showed a solubility (kinetic) of 39.2 µg/mL (≈ 121 µM). The value for `O=C(Cc1ccc(F)cc1)Nc1nc(-c2ccc(F)c(F)c2)cs1` was 1.4 µg/mL (≈ 4.02 µM); that for `COc1ccc(S(=O)(=O)N2CCc3ccccc3C2)cc1` was 0.7 µg/mL (≈ 2.31 µM).

`O=C(NCCCNC(=O)c1cc(Cl)ccc1Cl)c1ccco1`: the solubility (kinetic) was 44.3 µg/mL (≈ 130 µM).

With `CC(OC(=O)C1CC1)C(=O)Nc1cccc(S(=O)(=O)N2CCOCC2)c1` (centres undefined), the kinetic solubility is over 57.4 µg/mL. The value for `CCC1(c2ccccc2)NC(=O)N(CC(=O)N(c2ccccc2)C2CCS(=O)(=O)C2)C1=O` (centres undefined) was 38 µg/mL (≈ 83.4 µM); that for `CC1(C)Cc2cccc(C(=O)Nc3ccncc3)c2O1` was 34.8 µg/mL (≈ 130 µM); that for `Cc1[nH]c2ccccc2c1/C=C/C(=O)c1ccncc1` was 0.7 µg/mL (≈ 2.67 µM). The value for `O=C(Nc1ccccc1)c1cccc(=O)o1` was over 32.3 µg/mL; that for `Cc1nc(CC(=O)Nc2nccs2)cs1` was over 35.9 µg/mL. In the case of `CCNC(=O)c1ccccc1NC(=O)C1CC(=O)N(C(C)C)C1` (centres undefined), the kinetic solubility is over 47.6 µg/mL.

For `O=C(CN1CCN(c2ccccn2)CC1)Nc1ccccc1F`, the kinetic solubility was 42.3 µg/mL (≈ 135 µM). In the case of `O=C(O)CN1C(=O)c2ccc(Oc3ccc([N+](=O)[O-])cc3)cc2C1=O`, the solubility (kinetic) was over 51.3 µg/mL.

As for `CC1CC1C(=O)N(C)CC(=O)Nc1ccccc1Br` (centres undefined), the kinetic solubility is over 48.8 µg/mL.

As for `COCCNC(=O)C(OC(=O)c1ccco1)c1ccccc1F` (centres undefined), the solubility (kinetic) was over 48.2 µg/mL.

As for `CC(C)N(C(=O)c1ccc(-c2ccccc2F)cc1)C(C)C`, the kinetic solubility was 23.4 µg/mL (≈ 78.2 µM). `COc1ccc(N2CCN(C(=O)COC(=O)c3cccc(OC)c3O)CC2)cc1`: the kinetic solubility amounted to 7.2 µg/mL (≈ 18 µM). The figure for `OCCN1CCN(c2ncnc3sc4c(c23)CCCC4)CC1` is over 47.8 µg/mL. The value for `O=C(NCc1cccnc1)Nc1ccc(Cl)cc1Cl` was over 44.4 µg/mL; that for `NS(=O)(=O)c1ccc(CCNC(=O)c2ccc3nccnc3c2)cc1` was over 53.5 µg/mL; that for `Cc1cc(C)c(C(=O)CSc2nnc(C)c(=O)[nH]2)cc1C` was over 45.5 µg/mL.

Consider `Cc1cccc(OCC(=O)OCC(=O)Nc2sccc2C(N)=O)c1`, for which the solubility (kinetic) worked out at 44.2 µg/mL (≈ 127 µM). The figure for `O=c1c2ccccc2nc2n1C(CBr)CS2` (centres undefined) is over 44.6 µg/mL; for `CS(=O)(=O)NCCNc1ccc(C(F)(F)F)cc1[N+](=O)[O-]` it is 30.3 µg/mL (≈ 92.6 µM); for `CC(C)c1ccc(CNC(=O)C(=O)NCCCn2ccnc2)cc1` it is 45.4 µg/mL (≈ 138 µM). In turn, `CC(=O)/C=C/c1ccccc1Oc1c(F)c(F)nc(F)c1F` came in with a solubility (kinetic) of 17.8 µg/mL (≈ 57.2 µM). This solubility kinetic lies about 2.6-fold lower than the previous one.

On to `CCn1c(OC)nc2c1c(=O)n(C)c(=O)n2C`, for which the solubility (kinetic) was over 35.7 µg/mL. The figure for `CN(CC(=O)O)S(=O)(=O)c1ccc2oc3ccccc3c2c1` is 40.1 µg/mL (≈ 126 µM). On to `Cc1ccc(C(=O)CCC(=O)Nc2cc(C)ccn2)cc1`, for which the solubility (kinetic) came out at 6.2 µg/mL (≈ 22 µM). Against the preceding compound, the solubility kinetic is about 6.5-fold lower. The figure for `COc1cc(NC(=S)NC2CC(C)(C)NC(C)(C)C2)cc(OC)c1` is over 52.7 µg/mL; for `COc1ccc(NC(=O)c2ccc3nc(C)sc3c2)cc1` it is 15.4 µg/mL (≈ 51.6 µM); for `CCCCc1c(C)[nH]c2nc3ccccc3n2c1=O` it is under 0.2 µg/mL. On to `CC(=O)c1c(Cl)nc2cccc3c2c1-c1ccccc1C3=O`, for which the kinetic solubility is under 0.7 µg/mL. The figure for `CN1CCC2(CC1)C(C#N)=C(N)NC(S)=C2C#N` is over 39.2 µg/mL; for `Cc1ccc(CN2CC(C(=O)Nc3ccncc3)CC2=O)cc1` (centres undefined) it is over 46.4 µg/mL. The value for `Cc1ccc(NC(=O)COC(=O)c2cccnc2)cc1` was over 40.5 µg/mL; that for `O=c1cc(Cl)[nH]c(=O)n1Cc1ccccc1` was over 35.5 µg/mL; that for `COc1ccc(NCc2cc(=O)[nH]c3ccccc23)cc1` was 8 µg/mL (≈ 28.5 µM). The figure for `Clc1ccc(Oc2ccccc2)c2ncccc12` is 10.7 µg/mL (≈ 41.8 µM); for `Cc1ccc(CNC(=O)COC(=O)c2ccc(S(=O)(=O)N3CCOCC3)cc2)cc1` it is 6.5 µg/mL (≈ 15 µM); for `Cc1ccc(S(=O)(=O)Nc2ccc3c(c2)OCCO3)cc1` it is 42.3 µg/mL (≈ 139 µM). Take `O=C1CCN(C(=O)CCCn2c(=O)oc3ccccc32)CC1`: the solubility (kinetic) was over 45.3 µg/mL. The value for `Cc1cc(C)cc(NC(=S)N2CCC(NC(=O)C3CC3)CC2)c1` was over 49.7 µg/mL. The figure for `CC(=O)NCCC(=O)Nc1nc(-c2ccc3ccccc3c2)cs1` is 6.5 µg/mL (≈ 19.2 µM); for `CC(C)N(Cc1ccccc1)C(=O)CN1C(=O)c2ccccc2C1=O` it is over 50.5 µg/mL.

`O=c1[nH]c(O)c(C=Nc2ccccc2Sc2ccccc2)c(=O)[nH]1` registered a solubility (kinetic) of 1.3 µg/mL (≈ 3.83 µM).

`COc1ccccc1NC(=O)Nc1ccc2c(c1)CCC2` had a solubility (kinetic) of under 0.3 µg/mL.

Regarding `O=C(NCC(c1ccco1)N1CCCCC1)c1cccs1` (centres undefined), the solubility (kinetic) is over 45.7 µg/mL. The value for `O=C(c1cccs1)N1CCN(C23CC4CC(CC(C4)C2)C3)CC1` was over 49.6 µg/mL; that for `Cc1ccc(S(=O)(=O)N2CCN(CCc3ccncc3)CC2)cc1` was over 51.8 µg/mL. Compound `Cc1cccc(/C(N)=N/OC(=O)c2cccc3ccccc23)c1` showed a kinetic solubility of 1.1 µg/mL (≈ 3.61 µM).

Take `Cc1cc(NC(=O)CSc2nncn2-c2ccccc2)no1`: the kinetic solubility was over 47.3 µg/mL. The figure for `CCC(C)NC(=O)CSc1ncnc2sccc12` (centres undefined) is over 42.2 µg/mL. Compound `O=C(CCc1cccc(Cl)c1)N1CCCC(Nc2ccccc2)C1` (centres undefined) came in with a solubility (kinetic) of 27.4 µg/mL (≈ 79.9 µM). The value for `O=C(COc1cc(F)ccc1[N+](=O)[O-])NCCN1C(=O)CSC1=O` was over 53.6 µg/mL; that for `COc1cccc(NC(=O)/C=C/c2ccco2)c1` was over 36.5 µg/mL. The value for `O=C(Cc1ccc(Cl)cc1)NCCCNC(=O)c1cccnc1` was 46.2 µg/mL (≈ 139 µM).

`Cl.Fc1ccc(-c2ccc(CNCc3ccccn3)o2)cc1` had a kinetic solubility of 33.9 µg/mL. The figure for `O=C(Nc1sc2c(c1C(=O)NCCCO)CCCC2)c1ccccc1` is 1.6 µg/mL (≈ 4.46 µM); for `CN(C)CCCNC(=S)Nc1ccc(Oc2ccccc2)cc1` it is 43.1 µg/mL (≈ 131 µM). The figure for `CCCCc1nc2ccccc2[nH]1` is over 26.1 µg/mL; for `CCN(CC)C(=O)c1ccccc1NC(=O)c1ccccc1C` it is over 46.6 µg/mL. In turn, `O=C(O)C1=NN(c2c(F)c(F)cc(F)c2F)C(=O)CC1` came in with a kinetic solubility of over 43.5 µg/mL. The value for `C=CCn1c(O)c(C2=c3ccccc3=NC2=O)c2ccccc21` was under 0.3 µg/mL. `COc1ccc(NC(=O)CSc2nnc(N)s2)c([N+](=O)[O-])c1` registered a solubility (kinetic) of over 51.2 µg/mL.

`COCCCNC(=S)Nc1c(C)cc(C)cc1C` came in with a kinetic solubility of 37.2 µg/mL (≈ 140 µM). The value for `CCCCCCCc1c(C#N)c(N)[nH]c(=S)c1C#N` was 31.5 µg/mL (≈ 115 µM); that for `Cc1ccc(NC(=O)NCc2ccccn2)cc1Cl` was over 41.4 µg/mL.

The compound `C=CCNC1=C(Cl)C(=O)N(Cc2ccccc2)C1=O` returned a solubility (kinetic) of 5.8 µg/mL (≈ 21 µM).

`Cc1ccc(C2(c3ccc(C)cc3)CC2C(=O)NC(C)C)cc1` (centres undefined) displayed a kinetic solubility of 1 µg/mL (≈ 3.25 µM). The figure for `CCOC(=O)/C(C#N)=C1/C=C(C)c2ccccc2N1` is 0.4 µg/mL (≈ 1.57 µM); for `CC(C)C(=O)N1CCN(c2ccccc2NC(=S)NC(=O)/C=C/c2ccco2)CC1` it is 1.6 µg/mL (≈ 3.75 µM). The figure for `COc1ccc(CNC(=O)COC(=O)C2(C)CC2(Cl)Cl)cc1` (centres undefined) is over 51.9 µg/mL. Turning to `COc1ccc(OC)c(NC(=O)c2ccno2)c1`, the solubility (kinetic) is over 37.2 µg/mL. The value for `COc1ccc(NC(=O)CN2CCN(c3c(C)cc(C)cc3C)CC2)cc1` was 3.9 µg/mL (≈ 10.6 µM); that for `O=C(c1cc2ccccc2cc1O)N1CCCC1` was over 36.2 µg/mL. The figure for `Cl.c1cncc(CNC2CCCC2)c1` is over 37.4 µg/mL; for `CCN(CC)S(=O)(=O)c1ccc2nc(CCl)[nH]c2c1` it is over 45.3 µg/mL. Consider `COc1ccc(CNc2ncnc3c2[nH]c2ccccc23)cc1`, for which the solubility (kinetic) amounted to 0.2 µg/mL (≈ 0.657 µM).

As a reminder, the solubility (kinetic) is solubility judged after dilution from a stock solution rather than from solid.
